# Assay results from patent US12624018B1, “Inhibitors of RIPK2 and medical uses thereof” (Odyssey Therapeutics, Inc., priority 2022, dated 2026).
# Target: T1, RIPK2 enzyme (Homo sapiens, UniProt O43353)
# T1 construct: purchased Carna 09-128
# Experiment: RIPK2 inhibition (ADP-Glo Kinase Assay)
# Format: biochemical
# Details: RIPK2 5 nM, ATP 150 μM, MBP substrate, read-out: RIPK2 IC50
# In short: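 Swine MBP substrate; compound and 5 nM RIPK2 first mixed for 30 min at room temperature; buffer pH 7.5 HEPES 50 mM with 10 mM MgCl2, 2 mM DTT, 1 mM EGTA, Brij-35, BSA.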
# T1 sequence (O43353 1-299 limits assumed): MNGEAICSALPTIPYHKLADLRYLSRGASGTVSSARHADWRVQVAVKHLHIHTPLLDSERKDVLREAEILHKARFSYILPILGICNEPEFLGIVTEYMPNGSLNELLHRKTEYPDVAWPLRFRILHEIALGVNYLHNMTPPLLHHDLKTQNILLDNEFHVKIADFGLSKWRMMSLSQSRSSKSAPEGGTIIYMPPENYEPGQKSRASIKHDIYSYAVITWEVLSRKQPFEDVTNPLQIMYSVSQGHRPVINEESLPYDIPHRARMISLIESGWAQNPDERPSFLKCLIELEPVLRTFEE
row,IC50,Compound
1,< 2.5 nM,"Cc1cc(CC(=O)Nc2nnc(C(C)(C)C)o2)ccc1Oc1ccnc2ccc(S(C)(=O)=O)cc12 [Compound 431, N-(5-(tert-butyl)-1,3,4-oxadiazol-2-yl)-2-(3-methyl-4-((6-(methylsulfonyl)quinolin-4-yl)oxy)phenyl) acetamide]"
2,2.8 nM,"CC(C)(C)n1cc(NC(=O)Cc2ccc(Oc3ccnc4ccc(S(C)(=O)=O)cc34)c(C#N)c2)cn1 [Compound 432, N-(1-(tert-butyl)-1H-pyrazol-4-yl)-2-(3-cyano-4-((6-(methylsulfonyl)quinolin-4-yl)oxy)phenyl)acetamide]"
3,< 2.5 nM,"Cc1cc(CC(=O)Nc2cnn(C(C)(C)C)c2)c(F)cc1Oc1ccnc2ccc(C(C)(C)O)cc12 [Compound 433, N-(1-(tert-butyl)-1H-pyrazol-4-yl)-2-(2-fluoro-4-((6-(2-hydroxypropan-2-yl)quinolin-4-yl)oxy)-5-methylphenyl)acetamide]"
4,3 nM,"Cc1cc(CC(=O)Nc2cnn(C(C)(C)C)c2)c(F)cc1Oc1ncnc2ccc(C(N)=O)cc12 [Compound 434, 4-(4-(2-((1-(tert-butyl)-1H-pyrazol-4-yl)amino)-2-oxoethyl)-5-fluoro-2-methylphenoxy)quinazoline-6-carboxamide]"
5,< 2.5 nM,"CNC(=O)c1cc2c(Oc3cc(F)c(CC(=O)Nc4cnn(C(C)(C)C)c4)cc3C)ccnc2cc1F [Compound 435, 4-(4-(2-((1-(tert-butyl)-1H-pyrazol-4-yl)amino)-2-oxoethyl)-5-fluoro-2-methylphenoxy)-7-fluoro-N-methylquinoline-6-carboxamide]"
6,< 2.5 nM,"COc1cc2nccc(Oc3cc(F)c(CC(=O)Nc4cnn(C(C)(C)C)c4)cc3C)c2cc1C(N)=O [Compound 436, 4-(4-(2-((1-(tert-butyl)-1H-pyrazol-4-yl)amino)-2-oxoethyl)-5-fluoro-2-methylphenoxy)-7-methoxyquinoline-6-carboxamide]"
7,< 2.5 nM,"CNC(=O)c1cc2c(Oc3cc(F)c(CC(=O)Nc4cnn(C(C)(C)C)c4)cc3C)ccnc2cc1OC [Compound 437, 4-(4-(2-((1-(tert-butyl)-1H-pyrazol-4-yl)amino)-2-oxoethyl)-5-fluoro-2-methylphenoxy)-7-methoxy-N-methylquinoline-6-carboxamide]"
8,3.5 nM,"Cc1cc(CC(=O)Nc2cnn(C(C)(C)C)c2)c(F)cc1Oc1ncnc2cc(F)c(C(N)=O)cc12 [Compound 438, 4-(4-(2-((1-(tert-butyl)-1H-pyrazol-4-yl)amino)-2-oxoethyl)-5-fluoro-2-methylphenoxy)-7-fluoroquinazoline-6-carboxamide]"
9,< 2.5 nM,"COc1cc2ncnc(Oc3cc(F)c(CC(=O)Nc4cnn(C(C)(C)C)c4)cc3C)c2cc1C(N)=O [Compound 439, 4-(4-(2-((1-(tert-butyl)-1H-pyrazol-4-yl)amino)-2-oxoethyl)-5-fluoro-2-methylphenoxy)-7-methoxyquinazoline-6-carboxamide]"
10,< 2.5 nM,"CNC(=O)c1cc2c(Oc3cc(F)c(CC(=O)Nc4cnn(C(C)(C)C)c4)cc3C)ncnc2cc1OC [Compound 440, 4-(4-(2-((1-(tert-butyl)-1H-pyrazol-4-yl)amino)-2-oxoethyl)-5-fluoro-2-methylphenoxy)-7-methoxy-N-methylquinazoline-6-carboxamide]"
11,< 2.5 nM,"Cc1c(Oc2ccnc3ccc(C(O)CO)cc23)ccc(CC(=O)Nc2cnn(C(C)(C)C)c2)c1F (stereo not drawn) [Compound 444, N-(1-(tert-butyl)-1H-pyrazol-4-yl)-2-(4-((6-(1,2-dihydroxyethyl)quinolin-4-yl)oxy)-2-fluoro-3-methylphenyl)acetamide]"
12,< 2.5 nM,"Cc1cc(CC(=O)Nc2cnn(C(C)(C)C)c2)cc(C)c1Oc1ccnc2ccc(S(C)(=O)=O)cc12 [Compound 445, N-(1-(tert-butyl)-1H-pyrazol-4-yl)-2-(3,5-dimethyl-4-((6-(methylsulfonyl)quinolin-4-yl)oxy)phenyl)acetamide]"
13,21.4 nM,"Cc1cc(Oc2ccnc3ccc(S(C)(=O)=O)cc23)c(C)cc1CC(=O)Nc1cnn(C(C)(C)C)c1 [Compound 446, N-(1-(tert-butyl)-1H-pyrazol-4-yl)-2-(2,5-dimethyl-4-((6-(methylsulfonyl)quinolin-4-yl)oxy)phenyl)acetamide]"
14,< 2.5 nM,"Cc1cc(CC(=O)Nc2cnn(C(C)(C)C)c2)cc(F)c1Oc1ncnc2ccc(C(N)=O)cc12 [Compound 447, 4-(4-(2-((1-(tert-butyl)-1H-pyrazol-4-yl)amino)-2-oxoethyl)-2-fluoro-6-methylphenoxy)quinazoline-6-carboxamide]"
15,< 2.5 nM,"COC1CN(C(=O)c2ccc3nccc(Oc4cc(F)c(CC(=O)Nc5cnn(C(C)(C)C)c5)cc4C)c3c2)C1 [Compound 448, N-(1-(tert-butyl)-1H-pyrazol-4-yl)-2-(2-fluoro-4-((6-(3-methoxyazetidine-1-carbonyl)quinolin-4-yl)oxy)-5-methylphenyl)acetamide]"
16,< 2.5 nM,"Cc1cc(CC(=O)Nc2cnn(C(C)(C)C)c2)c(F)cc1Oc1ccnc2ccc(C(=O)N3CCC(N)C3)cc12 (stereo not drawn) [Compound 449, 2-(4-((6-(3-aminopyrrolidine-1-carbonyl)quinolin-4-yl)oxy)-2-fluoro-5-methylphenyl)-N-(1-(tert-butyl)-1H-pyrazol-4-yl)acetamide]"
17,< 2.5 nM,"Cc1cc(CC(=O)Nc2cnn(C(C)(C)C)c2)c(F)cc1Oc1ccnc2ccc(C(=O)N3[C@H](C)CCC[C@@H]3C)cc12 [Compound 450, N-(1-(tert-butyl)-1H-pyrazol-4-yl)-2-(4-((6-((2S,6R)-2,6-dimethylpiperidine-1-carbonyl)quinolin-4-yl)oxy)-2-fluoro-5-methylphenyl)acetamide]"
18,< 2.5 nM,"Cc1cc(CC(=O)Nc2cnn(C(C)(C)C)c2)c(F)cc1Oc1ccnc2ccc(C(=O)N3[C@H](C)COC[C@@H]3C)cc12 [Compound 451, N-(1-(tert-butyl)-1H-pyrazol-4-yl)-2-(4-((6-((3S,5R)-3,5-dimethylmorpholine-4-carbonyl)quinolin-4-yl)oxy)-2-fluoro-5-methylphenyl)acetamide]"
19,< 2.5 nM,"Cc1cc(CC(=O)Nc2cnn(C(C)(C)C)c2)c(F)cc1Oc1ccnc2ccc(C(=O)N3C[C@H]4C[C@@H]3CO4)cc12 [Compound 452, 2-(4-((6-((1R,4R)-2-oxa-5-azabicyclo[2.2.1]heptane-5-carbonyl)quinolin-4-yl)oxy)-2-fluoro-5-methylphenyl)-N-(1-(tert-butyl)-1H-pyrazol-4-yl)acetamide]"
20,< 2.5 nM,"Cc1cc(CC(=O)Nc2cnn(C(C)(C)C)c2)c(F)cc1Oc1ccnc2ccc(C(=O)N3C[C@H]4C[C@@H]3CN4)cc12 [Compound 453, 2-(4-((6-((1R,4R)-2,5-diazabicyclo[2.2.1]heptane-2-carbonyl)quinolin-4-yl)oxy)-2-fluoro-5-methylphenyl)-N-(1-(tert-butyl)-1H-pyrazol-4-yl)acetamide]"
21,< 2.5 nM,"Cc1cc(CC(=O)Nc2cnn(C(C)(C)C)c2)c(F)cc1Oc1ccnc2ccc(C(=O)N3C[C@@H]4C[C@H]3CO4)cc12 [Compound 454, 2-(4-((6-((1S,4S)-2-oxa-5-azabicyclo[2.2.1]heptane-5-carbonyl)quinolin-4-yl)oxy)-2-fluoro-5-methylphenyl)-N-(1-(tert-butyl)-1H-pyrazol-4-yl)acetamide]"
22,< 2.5 nM,"Cc1cc(CC(=O)Nc2cnn(C(C)(C)C)c2)c(F)cc1Oc1ccnc2ccc(C(=O)NC(C)C)cc12 [Compound 455, 4-(4-(2-((1-(tert-butyl)-1H-pyrazol-4-yl)amino)-2-oxoethyl)-5-fluoro-2-methylphenoxy)-N-isopropylquinoline-6-carboxamide]"
23,< 2.5 nM,"Cc1cc(CC(=O)Nc2cnn(C(C)(C)C)c2)c(F)cc1Oc1ccnc2ccc(C(=O)NC(C)(C)C)cc12 [Compound 456, N-(tert-butyl)-4-(4-(2-((1-(tert-butyl)-1H-pyrazol-4-yl)amino)-2-oxoethyl)-5-fluoro-2-methylphenoxy)quinoline-6-carboxamide]"
24,< 2.5 nM,"Cc1cc(CC(=O)Nc2cnn(C(C)(C)C)c2)c(F)cc1Oc1ccnc2ccc(C(=O)NC3CC3)cc12 [Compound 457, 4-(4-(2-((1-(tert-butyl)-1H-pyrazol-4-yl)amino)-2-oxoethyl)-5-fluoro-2-methylphenoxy)-N-cyclopropylquinoline-6-carboxamide]"
25,< 2.5 nM,"Cc1cc(CC(=O)Nc2cnn(C(C)(C)C)c2)c(F)cc1Oc1ccnc2ccc(C(=O)NC3(C)CC3)cc12 [Compound 458, 4-(4-(2-((1-(tert-butyl)-1H-pyrazol-4-yl)amino)-2-oxoethyl)-5-fluoro-2-methylphenoxy)-N-(1-methylcyclopropyl)quinoline-6-carboxamide]"
26,< 2.5 nM,"CSc1ccc2nccc(Oc3cc(F)c(CC(=O)Nc4cnn(C(C)(C)C)c4)cc3C)c2c1 [Compound 459, N-(1-(tert-butyl)-1H-pyrazol-4-yl)-2-(2-fluoro-5-methyl-4-((6-(methylthio)quinolin-4-yl)oxy)phenyl)acetamide]"
27,< 2.5 nM,"Cc1cc(CC(=O)Nc2cnn(C(C)(C)C)c2)c(F)cc1Oc1ccnc2ccc(-c3nnccc3C)cc12 [Compound 460, N-(1-(tert-butyl)-1H-pyrazol-4-yl)-2-(2-fluoro-5-methyl-4-((6-(4-methylpyridazin-3-yl)quinolin-4-yl)oxy)phenyl)acetamide]"
